From patent US9067871B2, “Aminotetraline derivatives, pharmaceutical compositions containing them, and their use in therapy” (ABBVIE DEUTSCHLAND GMBH & CO KG, priority 2009, dated 2015)
Where a name gives a salt, the structure may show the parent alone. Read-outs that look alike come from different tables or passages of the source.

Target: human GlyT1c transporter (Homo sapiens (Human), UniProt P48067)
Test: Radioligand binding assay using recombinant CHO cell membranes expressing human GlyT1
Conditions: human GlyT1c-expressing CHO cell membranes, read-out: radioligand binding Kiapp
Excerpt: 2. Radioligand binding assays using recombinant CHO cell membranes expressing human GlyT1: […]

Sequence of human GlyT1c transporter (P48067 whole entry): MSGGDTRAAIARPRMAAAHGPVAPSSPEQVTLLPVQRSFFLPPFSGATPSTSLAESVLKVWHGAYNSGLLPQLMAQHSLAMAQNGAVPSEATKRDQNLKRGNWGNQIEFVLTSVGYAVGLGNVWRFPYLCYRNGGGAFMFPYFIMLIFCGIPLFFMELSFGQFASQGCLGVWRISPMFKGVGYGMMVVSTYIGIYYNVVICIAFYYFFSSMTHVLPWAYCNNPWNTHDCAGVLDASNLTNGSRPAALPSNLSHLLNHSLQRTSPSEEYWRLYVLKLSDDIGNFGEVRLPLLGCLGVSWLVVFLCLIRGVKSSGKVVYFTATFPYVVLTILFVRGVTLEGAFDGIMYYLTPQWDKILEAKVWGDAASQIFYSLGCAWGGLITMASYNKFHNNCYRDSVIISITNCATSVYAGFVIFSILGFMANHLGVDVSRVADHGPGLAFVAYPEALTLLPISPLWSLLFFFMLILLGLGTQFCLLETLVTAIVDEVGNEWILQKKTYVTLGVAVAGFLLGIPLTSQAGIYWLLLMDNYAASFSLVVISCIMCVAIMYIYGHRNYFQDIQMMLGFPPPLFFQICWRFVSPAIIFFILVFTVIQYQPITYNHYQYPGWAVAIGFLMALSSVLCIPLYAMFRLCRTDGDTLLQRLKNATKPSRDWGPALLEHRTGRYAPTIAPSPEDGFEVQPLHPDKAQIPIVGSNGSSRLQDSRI

Compound	Ki	Ki (hydrochloride)
CCOC(=O)NC1CCc2ccc(OCCNS(=O)(=O)c3ccn(C)c3)cc2C1Cc1cc(F)cc(F)c1 (stereo not shown) [Example 236, Ethyl[1-(3,5-difluorobenzyl)-7-(2-{[(1-methyl-1H-pyrrol-3-yl)sulfonyl]amino}ethoxy)-1,2,3,4-tetrahydronaphthalen-2-yl]carbamate]	≤ 1000 nM	
NC1CCc2ccc(OCCNC(=O)CC3CC3)cc2C1Cc1ccc(Cl)c(Cl)c1 (stereo not shown) [Example 122, N-(2-{[7-Amino-8-(3,4-dichlorobenzyl)-5,6,7,8-tetrahydronaphthalen-2-yl]oxy}ethyl)-2-cyclopropylacetamide hydrochloride]	≤ 10000 nM	
NC1CCc2ccc(OCCNC(=O)c3ccccc3)cc2C1Cc1ccc(Cl)c(Cl)c1 (stereo not shown) [Example 123, N-(2-{[7-Amino-8-(3,4-dichlorobenzyl)-5,6,7,8-tetrahydronaphthalen-2-yl]oxy}ethyl)benzamide hydrochloride]	≤ 10000 nM	
CNC1CCc2ccc(OCCNS(=O)(=O)CC3CC3)cc2C1Cc1cccc(F)c1 (single isomer, unassigned; enantiomer 2) [Example 239, Enantiomer 2 of C-cyclopropyl-N-{2-[8-(3-fluoro-benzyl)-7-methylamino-5,6,7,8-tetrahydronaphthalen-2-yloxy]-ethyl}-methanesulfonamide hydrochloride]	≤ 1000 nM	
Cn1cnc(S(=O)(=O)NCCOc2ccc3c(c2)C(Cc2ccccc2Cl)C(N2CCCC2)CC3)c1 (stereo not shown) [Example 315, 1-Methyl-1H-imidazole-4-sulfonic acid {2-[8-(2-chloro-benzyl)-7-pyrrolidin-1-yl-5,6,7,8-tetrahydro-naphthalen-2-yloxy]-ethyl}-amide hydrochloride]	≤ 1000 nM	
O=S(=O)(NCc1ccc2c(c1)C(Cc1ccccc1)C(N1CCOCC1)CC2)C1CCC1 (stereo not shown) [Example 261, N-{[8-Benzyl-7-(morpholin-4-yl)-5,6,7,8-tetrahydronaphthalen-2-yl]methyl}cyclobutanesulfonamide]	≤ 1000 nM	
Cn1cnc(S(=O)(=O)NCCOc2ccc3c(c2)C(Cc2cccc(Cl)c2)C(N2CCCC2)CC3)c1 (stereo not shown) [Example 319, 1-Methyl-1H-imidazole-4-sulfonic acid {2-[8-(3-chloro-benzyl)-7-pyrrolidin-1-yl-5,6,7,8-tetrahydro-naphthalen-2-yloxy]-ethyl}-amide hydrochloride]	≤ 100 nM	
CCCS(=O)(=O)NCCCc1ccc2c(c1)C(Cc1ccccc1)C(N1CCCC1)CC2 (stereo not shown) [Example 265, Propane-1-sulfonic acid [3-(8-benzyl-7-pyrrolidin-1-yl-5,6,7,8-tetrahydro-naphthalen-2-yl)propyl]-amide hydrochloride]	≤ 1000 nM	
Cn1cnc(S(=O)(=O)NCc2ccc3c(c2)C(Cc2ccccc2)C(N2CCCC2=O)CC3)c1 (stereo not shown) [Example 263, N-{[8-Benzyl-7-(2-oxopyrrolidin-1-yl)-5,6,7,8-tetrahydronaphthalen-2-yl]methyl}-1-methyl-1H-imidazole-4-sulfonamide]	≤ 1000 nM	
CCCS(=O)(=O)NCCOc1ccc2c(c1)C(Cc1ccccc1Cl)C(N)CC2 (stereo not shown) [Example 293, Propane-1-sulfonic acid {2-[7-amino-8-(2-chloro-benzyl)-5,6,7,8-tetrahydro-naphthalen-2-yloxy]-ethyl}-amide hydrochloride]	≤ 1000 nM	
CCCS(=O)(=O)NCCCc1ccc2c(c1)C(Cc1ccccc1)C(NC(C)=O)CC2 (stereo not shown) [Example 217, N-[1-Benzyl-7-{3-[(propylsulfonyl)amino]propyl}-1,2,3,4-tetrahydronaphthalen-2-yl]acetamide]	≤ 10000 nM	
CCOC(=O)NC1CCc2ccc(OCCNS(=O)(=O)c3cn(C)cn3)cc2C1Cc1ccccc1Cl (stereo not shown) [Example 298, {1-(2-Chloro-benzyl)-7-[2-(1-methyl-1H-imidazole-4-sulfonylamino)-ethoxy]-1,2,3,4-tetrahydro-naphthalen-2-yl}-carbamic acid ethyl ester]	≤ 10000 nM	
CCCS(=O)(=O)N1CC(c2ccc3c(c2)C(Cc2cccc(Cl)c2)C(N)CC3)C1 (stereo not shown) [Example 283, 1-(3-Chloro-benzyl)-7-[1-(propane-1-sulfonyl)-azetidin-3-yl]-1,2,3,4-tetrahydro-naphthalen-2-ylamine hydrochloride]	≤ 1000 nM	
NC1CCc2ccc(CNS(=O)(=O)CC3CC3)cc2C1Cc1ccc(F)c(F)c1 (stereo not shown) [Example 185, N-{[7-Amino-8-(3,4-difluorobenzyl)-5,6,7,8-tetrahydronaphthalen-2-yl]methyl}-1-cyclopropylmethanesulfonamide hydrochloride]	≤ 1000 nM	
CCCS(=O)(=O)NCCOc1ccc2c(c1)C(Cc1ccccc1F)C(NC)CC2 (stereo not shown) [Example 311, Propane-1-sulfonic acid {2-[8-(2-fluoro-benzyl)-7-methylamino-5,6,7,8-tetrahydronaphthalen-2-yloxy]-ethyl}-amide hydrochloride]	≤ 100 nM	
CCNC1CCc2ccc(CNS(=O)(=O)c3cnn(C)c3)cc2C1Cc1cccc(F)c1 (stereo not shown) [Example 200, 1-Methyl-1H-pyrazole-4-sulfonic acid [7-ethylamino-8-(3-fluoro-benzyl)-5,6,7,8-tetrahydronaphthalen-2-ylmethyl]-amide hydrochloride]	≤ 100 nM	
Cn1cnc(S(=O)(=O)NCCOc2ccc3c(c2)C(Cc2ccccc2)C(N2CCCC2)CC3)c1 (single isomer, unassigned; (+)) [Example 118, (+)-N-(2-(8-benzyl-7-(pyrrolidin-1-yl)-5,6,7,8-tetrahydronaphthalen-2-yloxy)ethyl)-1-methyl-1H-imidazole-4-sulfonamide hydrochloride]		≤ 100 nM
CN(CCOc1ccc2c(c1)C(Cc1ccccc1)C(N1CCC1)CC2)S(=O)(=O)c1cnn(C)c1 (stereo not shown) [Example 112, 1-Methyl-1H-pyrazole-4-sulfonic acid [2-(7-azetidin-1-yl-8-benzyl-5,6,7,8-tetrahydronaphthalen-2-yloxy)-ethyl]-methyl-amide hydrochloride]	≤ 100 nM	
O=S(=O)(CC1CC1)NCc1ccc2c(c1)C(Cc1ccccc1)C(N1CCOCC1)CC2 (stereo not shown) [Example 259, N-{[8-Benzyl-7-(morpholin-4-yl)-5,6,7,8-tetrahydronaphthalen-2-yl]methyl}-1-cyclopropylmethanesulfonamide]	≤ 1000 nM	
CCCS(=O)(=O)NCCCc1ccc2c(c1)C(Cc1cccc(F)c1)C(N)CC2 (stereo not shown) [Example 209, N-{3-[7-Amino-8-(3-fluorobenzyl)-5,6,7,8-tetrahydronaphthalen-2-yl]propyl}propane-1-sulfonamide hydrochloride]	≤ 100 nM	

Next, values leading:

Ki	Ki (hydrochloride)	Compound
≤ 100 nM		CN(CCOc1ccc2c(c1)C(Cc1ccccc1)C(N1CCCC1)CC2)S(=O)(=O)c1cn(C)cn1 (stereo not shown) [Example 101, 1-Methyl-1H-imidazole-4-sulfonic acid [2-(8-benzyl-7-pyrrolidin-1-yl-5,6,7,8-tetrahydronaphthalen-2-yloxy)-ethyl]-methyl-amide hydrochloride]
≤ 10 nM		Cn1cnc(S(=O)(=O)NCc2ccc3c(c2)C(Cc2cccc(F)c2)C(N)CC3)c1 (stereo not shown) [Example 177, N-{[7-Amino-8-(3-fluorobenzyl)-5,6,7,8-tetrahydronaphthalen-2-yl]methyl}-1-methyl-1H-imidazole-4-sulfonamide hydrochloride]
≤ 10 nM		CNC1CCc2ccc(OCCNS(=O)(=O)CC3CC3)cc2C1Cc1cc(F)cc(Cl)c1 (stereo not shown) [Example 158, N-(2-{[8-(3-Chloro-5-fluorobenzyl)-7-(methylamino)-5,6,7,8-tetrahydronaphthalen-2-yl]oxy}ethyl)-1-cyclopropylmethanesulfonamide hydrochloride]
≤ 100 nM		O=S(=O)(CC1CC1)NCCOc1ccc2c(c1)C(Cc1cc(F)cc(Cl)c1)C(N1CCC1)CC2 (stereo not shown) [Example 159, N-(2-{[7-(Azetidin-1-yl)-8-(3-chloro-5-fluorobenzyl)-5,6,7,8-tetrahydronaphthalen-2-yl]oxy}ethyl)-1-cyclopropylmethanesulfonamide (2E)-but-2-enedioate]
≤ 100 nM		CCCS(=O)(=O)NCCCc1ccc2c(c1)C(Cc1cccc(Cl)c1)C(N)CC2 (stereo not shown) [Example 297, Propane-1-sulfonic acid {3-[7-amino-8-(3-chloro-benzyl)-5,6,7,8-tetrahydro-naphthalen-2-yl]-propyl}-amide hydrochloride]
≤ 100 nM		CNC1CCc2ccc(OCCNS(=O)(=O)CC3CC3)cc2C1Cc1ccccc1F (stereo not shown) [Example 312, C-Cyclopropyl-N-{2-[8-(2-fluoro-benzyl)-7-methylamino-5,6,7,8-tetrahydro-naphthalen-2-yloxy]-ethyl}-methanesulfonamide hydrochloride]
≤ 100 nM		CCNC1CCc2ccc(CCCNS(=O)(=O)CC3CC3)cc2C1Cc1ccc(F)c(F)c1 (stereo not shown) [Example 226, 1-Cyclopropyl-N-{3-[8-(3,4-difluorobenzyl)-7-(ethylamino)-5,6,7,8-tetrahydronaphthalen-2-yl]propyl}methanesulfonamide trifluoroacetate]
≤ 10 nM		CCCS(=O)(=O)NCCCc1ccc2c(c1)C(Cc1cccc(Cl)c1)C(NC)CC2 (stereo not shown) [Example 308, Propane-1-sulfonic acid {3-[8-(3-chloro-benzyl)-7-methylamino-5,6,7,8-tetrahydronaphthalen-2-yl]-propyl}-amide hydrochloride]
≤ 10 nM		CNC1CCc2ccc(OCCNS(=O)(=O)CC3CC3)cc2C1Cc1cc(F)cc(F)c1 (single isomer, unassigned; enantiomer 2) [Example 244, Enantiomer 2 of 1-cyclopropyl-N-(2-{[8-(3,5-difluorobenzyl)-7-(methylamino)-5,6,7,8-tetrahydronaphthalen-2-yl]oxy}ethylmethanesulfonamide hydrochloride]
≤ 10 nM		Cn1cc(S(=O)(=O)NCCOc2ccc3c(c2)C(Cc2ccccc2Cl)C(N)CC3)cn1 (stereo not shown) [Example 301, 1-Methyl-1H-pyrazole-4-sulfonic acid {2-[7-amino-8-(2-chloro-benzyl)-5,6,7,8-tetrahydronaphthalen-2-yloxy]-ethyl}-amide hydrochloride]
≤ 10 nM		CNC1CCc2ccc(OCCNS(=O)(=O)CC3CC3)cc2C1Cc1cccc(F)c1 (stereo not shown) [Example 247, 1-Cyclopropyl-N-(2-{[8-(3-fluorobenzyl)-7-(methylamino)-5,6,7,8-tetrahydronaphthalen-2-yl]oxy}ethyl)methanesulfonamide hydrochloride]
